Results: patent publication US20080286355A1, “Protease Inhibitors For the Treatment of Digestive Pathologies” (priority 2004, published 2008)

Columns and labels:
Assay type in all cases: in vivo
[1] = system: male Wistar rats; test: Colon mucosa permeability to 51Cr-EDTA, radioactivity in 24-hour urine of rats; details: rat; SLIGRL 0.05, 0.2 and 0.5 mg/rat into colon lumen at t=0; 10-hour intracolonic 51Cr-EDTA infusion; vs solvent
Method: Six groups of eight male Wistar rats (200-250 g) were used for this study. The animals were fitted with an indwelling intracolonic catheter in the proximal colon (3 cm from the caeco-colic junction). In these experiments, four groups of rats received a 10-hour intracolonic infusion of ^51Cr-EDTA ([…]). The animals were placed in separate cages and total 24-hour urine was collected. Radioactivity was measured in the urine to evaluate the permeability of the colon mucosa to ^51Cr-EDTA. Increasing doses of the PAR-2 activator peptide (SLIGRL) were injected in the colon lumen (groups 2, 3 and 4) at time t=0 (start of ^51Cr-EDTA infusion) at a dose of 0.05, 0.2 and 0.5 mg/rat. Group 1 received the solvent.

[2] = system: male Swiss mice; test: Paracellular permeability in mouse colon (51Cr-EDTA) during intracolonic infusion of protease inhibitors; details: 5-hour intracolonic infusion 250 μl/h, 51Cr-EDTA from hours 3 to 5
Method: Six groups of ten male Swiss mice (25-30 g) were used for this study. The animals received a 5-hour intracolonic infusion (250 μl/h) of the different protease inhibitor solutions through a catheter inserted through the rectum and fixed at the base of the tail; ^51Cr-EDTA was added to the infusion from hours 3 to 5 (FIG. 2). At t=5 hours, the animals were sacrificed, the colons removed, and total radioactivity remaining in the body was taken as an indicator of paracellular permeability.

[3] = system: male Wistar rats; test: Rectal sensitivity to distention (abdominal contractions, EMG) after intracolonic trypsin; details: rat, distention at t=10 h, distention volumes 0.8, 1.2 and 1.6 ml, vs solvent control
Method: At time t=0, the animals received an intracolonic infusion of trypsin ([…]), a specific PAR-2 receptor activator at the dose of 20 units (group 1) or solvent (group 2). At time t=10 h after the intracolonic trypsin infusion, the animals were subjected to the rectal distention protocol.

[4] = system: male Swiss mice; test: Colon paracellular permeability in mice after trypsin, supernatant of colon contents and antibiotic cocktail; details: mouse, intracolonic trypsin 50 μL
Method: Groups of ten male Swiss mice (Janvier-France) weighing 25-30 g were used for this study. In baseline conditions, the effects on colon paracellular permeability of intracolonic infusion of trypsin (50 μL, 600 U) and of supernatant of colon contents taken from control mice and given by a 3-hour intracolonic infusion (250 μL/h) on one day (D1) or on two consecutive days (D2) were evaluated. The same infusions were then repeated after 12 days of treatment with oral an antibiotic cocktail (neomycin 2 mg/kg/day+ampicillin 1 mg/kg/day).

SLIGRL
permeability to 51Cr-EDTA (recovery in 24-hour urine) [1]: dose-dependent increase

aprotinin
paracellular permeability (total radioactivity remaining in the body) [2]: significantly lower

trypsin
abdominal response to rectal distention [3]: significant decrease
increase in colon permeability after the antibiotic treatment ([4]; 600 U after 12 days of antibiotic cocktail): disappeared
colon paracellular permeability, baseline conditions ([4]; 600 U, normal mice): increase

CNC(=O)[C@H](Cc1c[nH]c2ccccc12)NC(=O)[C@@H](CC(=O)NO)CC(C)C [galardin]
paracellular permeability (total radioactivity remaining in the body) [2]: significantly lower
